Patent US20210017193A1, “CONDENSED BICYCLIC HETEROCYCLIC DERIVATIVES AS PEST CONTROL AGENTS” (Bayer Aktiengesellschaft, priority 2018, published 2021)

Key:
[1] = log P determination by HPLC on reversed-phase column (C18), acidic range; type: physicochemical; settings: LC-UV, formic acid in water/acetonitrile
Experimental: log P Values The log P values were determined according to EEC Directive 79/831 Annex V.A8 by HPLC (high-performance liquid chromatography) on a reversed-phase column (C18) using the following methods: ^[a] […] Calibration was carried out using a homologous series of straight-chain alkan-2-ones (having 3 to 16 carbon atoms) with known log P values. The values between successive alkanones are determined by linear regression.

Myzus persicae [2] = assay: Myzus persicae oral test; type: in vivo; settings: 120 h, oral uptake from microtitre plates, after 5 days, read-out: efficacy (aphids killed)
Experimental: Myzus persicae—Oral Test Solvent: 100 parts by weight of acetone To produce a suitable preparation of active compound, 1 part by weight of active compound is dissolved using the specified parts by weight of solvent and made up with water until the desired concentration is attained. 50 μl of the active compound preparation are transferred into microtitre plates and made up to a final volume of 200 μl with 150 μl of IPL41 insect medium (33%+15% sugar). Subsequently, the plates are sealed with parafilm, which a mixed population of green peach aphids (Myzus persicae) within a second microtitre plate is able to puncture and imbibe the solution through. After 5 days, the efficacy in % is determined. 100% means that all the aphids have been killed; 0% means that no aphids have been killed.

Ctenocephalides felis = Ctenocephalides felis oral test; type: in vivo; settings: 100 ppm in citrated cattle blood, adult cat fleas, after 2 days
Experimental: Ctenocephalides felis—Oral Test
Solvent: dimethyl sulfoxide
To produce a suitable active compound formulation, 10 mg of active compound are mixed with 0.5 ml of dimethyl sulfoxide. Dilution with citrated cattle blood gives the desired concentration.
About 20 unfed adult cat fleas (Ctenocephalidesfelis) are placed into a chamber which is closed at the top and bottom with gauze. A metal cylinder whose bottom end is closed with parafilm is placed onto the chamber. The cylinder contains the blood/active compound formulation, which can be imbibed by the fleas through the parafilm membrane.
After 2 days, the kill in % is determined. 100% means that all of the fleas have been killed; 0% means that none of the fleas have been killed.

Spodoptera frugiperda = Spodoptera frugiperda spray test; type: in vivo; settings: 100 g/ha, maize leaf discs, after 7 days
Experimental: Spodoptera frugiperda—Spray Test
(§1) Solvent: 78.0 parts by weight of acetone • • 1.5 parts by weight of dimethylformamide
(§2) Emulsifier: alkylaryl polyglycol ether
(§3) To produce a suitable active compound preparation, 1 part by weight of active compound is dissolved using the stated parts by weight of solvent and made up with water containing an emulsifier concentration of 1000 ppm until the desired concentration is attained. To produce further test concentrations, the formulation is diluted with emulsifier-containing water.
Leaf discs of maize (Zea mays) are sprayed with an active compound formulation of the desired concentration and, after drying, populated with caterpillars of the fall armyworm (Spodopterafrugiperda).
After 7 days, the efficacy in % is determined. 100% means that all the caterpillars have been killed; 0% means that no caterpillar has been killed.

Boophilus microplus = Boophilus microplus injection test; type: in vivo; settings: 20 μg/animal, injection into engorged adult female cattle ticks, assessed after 7 days
Experimental: Boophilus microplus—Injection Test Solvent: dimethyl sulfoxide To produce a suitable active compound formulation, 10 mg of active compound are mixed with 0.5 ml of solvent and the concentrate is diluted to the desired concentration with solvent. 1 μl of the active compound solution is injected into the abdomen of 5 engorged adult female cattle ticks (Boophilus microplus). The animals are transferred into dishes and kept in a climate-controlled room. Efficacy is assessed after 7 days by laying of fertile eggs. Eggs which are not visibly fertile are stored in a climate-controlled cabinet until the larvae hatch after about 42 days. An efficacy of 100% means that none of the ticks has laid any fertile eggs; 0% means that all the eggs are fertile.

Phaedon cochleariae = Phaedon cochleariae spray test; type: in vivo; settings: 100 g/ha, Chinese cabbage leaf discs, after 7 days
Experimental: Phaedon cochleariae—Spray Test
as §1, §2, §3
Discs of Chinese cabbage leaves (Brassica pekinensis) are sprayed with an active compound formulation of the desired concentration and, after drying, populated with larvae of the mustard beetle (Phaedon cochleariae).
After 7 days, the efficacy in % is determined. 100% means that all the beetle larvae have been killed; 0% means that no beetle larvae have been killed.

Meloidogyne incognita = Meloidogyne incognita test; type: in vivo; settings: 20 ppm, lettuce in sand, after 14 days
Experimental: Meloidogyne incognita test Solvent: 125.0 parts by weight of acetone To produce a suitable active compound formulation, 1 part by weight of active compound is mixed with the stated amount of solvent and the concentrate is diluted to the desired concentration with water. Vessels are filled with sand, active compound solution, an egg/larvae suspension of the southern root-knot nematode (Meloidogyne incognita) and lettuce seeds. The lettuce seeds germinate and the plants develop. The galls develop on the roots. After 14 days, the nematicidal efficacy in % is determined by the formation of galls. 100% means that no galls were found; 0% means that the number of galls on the treated plants corresponds to the untreated control.

Myzus persicae [3] = assay: Myzus persicae spray test; type: in vivo; settings: foliar, 120 h, Chinese cabbage leaf discs, after 5 days, read-out: efficacy (aphids killed)
Experimental: Myzus persicae—Spray Test Solvent: 78 parts by weight of acetone • • 1.5 parts by weight of dimethylformamide Emulsifier: alkylaryl polyglycol ether To produce a suitable active compound preparation, 1 part by weight of active compound is dissolved using the stated parts by weight of solvent and made up with water containing an emulsifier concentration of 1000 ppm until the desired concentration is attained. To produce further test concentrations, the formulation is diluted with emulsifier-containing water. Discs of Chinese cabbage leaves (Brassica pekinensis) infested by all stages of the green peach aphid (Myzus persicae) are sprayed with an active compound formulation of the desired concentration. After 5 days, the efficacy in % is determined. 100% means that all the aphids have been killed; 0% means that no aphids have been killed.

Diabrotica balteata = Diabrotica balteata spray test; type: in vivo; settings: 160 μg/cavity, sprayed germinated wheat grains, beetle larvae, after 7 days
Experimental: Diabrotica balteata—Spray Test Solvent: 78 parts by weight of acetone • • 1.5 parts by weight of dimethylformamide Emulsifier: alkylaryl polyglycol ether To produce a suitable active compound preparation, 1 part by weight of active compound is dissolved using the stated parts by weight of solvent and made up with water containing an emulsifier concentration of 1000 ppm until the desired concentration is attained. To produce further test concentrations, the formulation is diluted with emulsifier-containing water. Pre-swollen wheat grains (Triticum aestivum) are incubated in a multiwell plate filled with agar and a little water for one day (5 seed grains per cavity). The germinated wheat grains are sprayed with an active compound preparation of the desired concentration. Subsequently, each cavity is infected with 10-20 beetle larvae of Diabrotica balteata. After 7 days, the efficacy in % is determined. 100% means that all wheat plants have grown as in the untreated, uninfected control; 0% means that no wheat plant has grown.

Tetranychus urticae = Tetranychus urticae spray test, OP-resistant; type: in vivo; settings: 100 g/ha, bean leaf discs, after 6 days
Experimental: Tetranychus urticae—Spray Test, OP-Resistant
as §1, §2, §3
Discs of bean leaves (Phaseolus vulgaris) infested with all stages of the greenhouse red spider mite (Tetranychus urticae) are sprayed with an active compound formulation of the desired concentration.
After 6 days, the efficacy in % is determined. 100% means that all the spider mites have been killed; 0% means that no spider mites have been killed.

chromatographic logP [1] | Compound | pest or weed control at 4 ppm (Myzus persicae [2]) | efficacy (caterpillars killed) (Spodoptera frugiperda) | pest or weed control at 100 g/ha (Myzus persicae [3]) | efficacy (Diabrotica balteata) | also measured
3.14 | Cn1c(C(F)(F)F)cc2nc(-c3nc4n(c3Br)CCC(C)(C)C4)n(C)c2c1=O [2-(3-Bromo-7,7-dimethyl-6,8-dihydro-5H-imidazo[1,2-a]pyridin-2-yl)-3,5-dimethyl-6-(trifluoromethyl)imidazo[4,5-c]pyridin-4-one] |  |  |  |  | 
0.67 | CC1(C)CCn2c(nc(C(=O)O)c2Br)C1 [3-Bromo-7,7-dimethyl-6,8-dihydro-5H-imidazo[1,2-a]pyridine-2-carboxylicacid] |  |  |  |  | 
3.2 | CCS(=O)(=O)c1c(-c2nc3cc(C(F)(F)F)n(C)c(=O)c3n2C)nc2cc(C(F)(F)F)ccn12 [Example I-01, 2-[3-(Ethylsulfonyl)-7-(trifluoromethyl)imidazo[1,2-a]pyridin-2-yl]-3,5-dimethyl-6-(trifluoromethyl)-3,5-dihydro-4H-imidazo[4,5-c]pyridin-4-one] | 100% | 100% |  |  | efficacy (kill in %) (Ctenocephalides felis): 95%; efficacy (laying of fertile eggs) (Boophilus microplus): 100%
2.59 | CCS(=O)(=O)c1c(-c2nc3cc(C(F)(F)F)n(C)c(=O)c3n2C)nc2cc(C3(C#N)CC3)ccn12 [Example I-02, 1-{2-[3,5-Dimethyl-4-oxo-6-(trifluoromethyl)-4,5-dihydro-3H-imidazo [4,5-c]pyridin-2-yl]-3-(ethylsulfonyl)imidazo[1,2-a]pyridin-7-yl}cyclopropanecarbonitrile] | 100% | 100% | 100% |  | efficacy (beetle larvae killed) (Phaedon cochleariae): 100%; efficacy (kill in %) (Ctenocephalides felis): 100%; nematicidal efficacy (formation of galls) (Meloidogyne incognita): 100%
2.03 | CCS(=O)(=O)c1c(-c2nc3cc(C(F)(F)F)n(C)c(=O)c3n2C)nc2n1CCCC2 [Example I-03, 2-[3-(Ethylsulfonyl)-5,6,7,8-tetrahydroimidazo[1,2-a]pyridin-2-yl]-3,5-dimethyl-6-(trifluoromethyl)-3,5-dihydro-4H-imidazo[4,5-c]pyridin-4-one] | 100% |  | 90% |  | 
2.66 | CCS(=O)(=O)c1c(-c2nc3cc(C(F)(F)F)n(C)c(=O)c3n2C)nc2n1CCC(C)(C)C2 [Example I-10, 2-(3-Ethylsulfonyl-7,7-dimethyl-6,8-dihydro-5H-imidazo[1,2-a]pyridin-2-yl)-3,5-dimethyl-6-(trifluoromethyl)imidazo[4,5-c]pyridin-4-one] | 100% |  | 90% | 100% | 
2.59 | CCS(=O)(=O)c1c(-c2nc3cc(C(F)(F)F)n(C)c(=O)c3n2C)nc2cc(S(=O)(=O)C3CC3)ccn12 [Example I-12, 2-[7-(Cyclopropylsulfonyl)-3-(ethylsulfonyl)imidazo[1,2-a]pyridin-2-yl]-3,5-dimethyl-6-(trifluoromethyl)-3,5-dihydro-4H-imidazo[4,5-c]pyridin-4-one] | 100% | 100% |  | 100% | 

Second part, the molecule before the results:

Compound | chromatographic logP [1] | pest or weed control at 4 ppm (Myzus persicae [2]) | efficacy (caterpillars killed) (Spodoptera frugiperda) | pest or weed control at 100 g/ha (Myzus persicae [3]) | efficacy (Diabrotica balteata) | also measured
CCS(=O)(=O)c1c(-c2nc3cc(C(F)(F)F)n(C)c(=O)c3n2C)nc2n1CC(C)CC2 (centres unmarked) [Example I-04] |  | 100% |  | 100% |  | 
CCS(=O)(=O)c1c(-c2nc3cc(C(F)(F)F)n(C)c(=O)c3n2C)nc2n1CCC(C)C2 (centres unmarked) [Example I-05] |  | 100% |  | 100% |  | nematicidal efficacy (formation of galls) (Meloidogyne incognita): 90%
CCS(=O)(=O)c1c(-c2nc3cc(C(F)(F)F)n(C)c(=O)c3n2C)nc2n1CCC(C(F)(F)F)C2 (centres unmarked) [Example I-06] |  | 100% | 100% |  | 100% | 
CCS(=O)(=O)c1c(-c2nc3cc(C(F)(F)F)n(C)c(=O)c3n2C)nc2cc(C(F)(F)C3CC3)ccn12 [Example I-07] |  | 100% | 100% |  | 100% | 
CCS(=O)(=O)c1c(-c2nc3cc(C(F)(F)F)n(C)c(=O)c3n2C)nc2cc(C(=O)C3CC3)ccn12 [Example I-08] |  | 100% | 100% | 90% | 100% | 
CCS(=O)(=O)c1c(-c2nc3cc(C(F)(F)F)n(C)c(=O)c3n2C)nc2n1CCC(C)C2C (centres unmarked) [Example I-09] |  | 100% |  | 90% | 100% | efficacy (spider mites killed) (Tetranychus urticae): 90%
CCS(=O)(=O)c1c(-c2nc3cc(C(F)(F)F)n(C)c(=O)c3n2C)nc2n1CCCC2C (centres unmarked) [Example I-11] |  | 100% |  | 90% | 100% | 
